From a compilation of properties of binary mixtures (doi:10.1016/j.molliq.2020.113380)

Assay: xn = mol fraction of the nth substance listed
Details: 86 kPa, x2 = 0.5

For `O=C(O)COCC(=O)O` + CCCC[N+](CCCC)(CCCC)CCCC.O=S(=O)([O-])O, the electrical conductivity (293.15 K) was 0.0002 S/m, the speed of sound (293.15 K) was 1820.2 m/s and the electrical conductivity (298.15 K) was 0.0004 S/m. The speed of sound (298.15 K) was 1770.7 m/s, the electrical conductivity (303.15 K) was 0.0007 S/m and the speed of sound (303.15 K) was 1720.3 m/s. It also gave a viscosity (303.15 K) of 38300 mPa·s, an electrical conductivity (308.15 K) of 0.0013 S/m and a speed of sound (308.15 K) of 1690.7 m/s. The viscosity (308.15 K) was 21200 mPa·s, the electrical conductivity (313.15 K) was 0.0022 S/m and the speed of sound (313.15 K) was 1661.5 m/s. It also gave a viscosity (313.15 K) of 12020 mPa·s, an electrical conductivity (318.15 K) of 0.0035 S/m and a speed of sound (318.15 K) of 1630.3 m/s. It also gave a viscosity (318.15 K) of 7750 mPa·s, an electrical conductivity (323.15 K) of 0.0054 S/m and a speed of sound (323.15 K) of 1603.6 m/s. The viscosity (323.15 K) was 5450 mPa·s, the electrical conductivity (328.15 K) was 0.0081 S/m and the speed of sound (328.15 K) was 1581 m/s. The viscosity (328.15 K) was 3520 mPa·s, the electrical conductivity (333.15 K) was 0.0117 S/m and the speed of sound (333.15 K) was 1560.2 m/s. It also gave a viscosity (333.15 K) of 2500 mPa·s, a viscosity (338.15 K) of 1750 mPa·s and a viscosity (343.15 K) of 1250 mPa·s.
